Read-outs that look alike come from different tables or passages of the source.
Tests used:
[1] = biological target: recombinant human NF-kappaB-inducing kinase (NIK/MAP3K14) (Homo sapiens, UniProt Q99558); assay: Inhibition of auto-phosphorylation of recombinant human NIK/MAP3K14 activity (AlphaScreen), Biological Assay A; type: biochemical; conditions: averaged values over all measurements on all batches
Summary of the method: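 AlphaScreen detection with anti-phospho-IKK Ser176/180 antibody plus Protein A acceptor/glutathione donor beads after 1 h, 25 °C reaction of 0.2 nM GST-tagged kinase, 25 μM ATP and compound. Buffer: 50 mM Tris pH 7.5, MgCl2, EGTA, DTT, vanadate; 1% DMSO. IC50 fitted sigmoidally to % inhibition.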

[2] = tested on: P-IKKα levels in L363 (NIK translocated multiple myeloma) cells; assay: Effect of compounds on P-IKKα levels in L363 cells (Mesoscale sandwich immuno-assay), Biological Assay B; type: cell-based, human; conditions: 2 hr treatment, averaged values, read-out: Inhibition of pIKKα_L-363 (IC50 (nM))
Protocol: Effect of Compounds on P-IKKα Levels in L363 (NIK Translocated Multiple Myeloma) Cells
All compounds tested were dissolved in DMSO and further dilutions were made in culture medium. Final DMSO concentration was 1% (v/v) in cell assays. The human L363 cells (ATCC) were cultured in RPMI 1640 medium supplemented with GlutaMax and 10% fetal calf serum (PAA). Cells were routinely maintained at densities of 0.2×10^6 cells per ml-1×10^6 cells per ml at 37° C. in a humidified 5% CO2 atmosphere. Cells were passaged twice a week splitting back to obtain the low density. Cells were seeded in 96 well plates (Nunc 167008) at 2×10^6 per ml media in a volume of 75 μl per well plus 25 μl 1 μg/ml recombinant human B-cell activating factor (BAFF/BLyS/TNFSF13B). Seeded cells were incubated at 37° C. in a humidified 5% CO2 atmosphere for 24 hr. Drugs and/or solvents were added (20 μl) to a final volume of 120 μl. Following 2 hr treatment plates were removed from the incubator and cell lysis was achieved by the addition of 30 μl 5× lysis buffer followed by shaking on a plate shaker at 4° C. for 10 min. At the end of this incubation lysed cells were centrifuged at 800×g for 20 min at 4° C. and the lysate was assessed for P-IKKα levels by sandwich immuno-assay carried out in anti-rabbit antibody coated Mesoscale plates. Within an experiment, the results for each treatment were the mean of 2 replicate wells. For initial screening purposes, compounds were tested using an 8 point dilution curve (serial 1:3 dilutions). For each experiment, controls (containing MG132 and BAFF but no test drug) and a blank incubation (containing MG132 and BAFF and 10 μM ADS125117, a test concentration known to give full inhibition) were run in parallel. The blank incubation value was subtracted from all control and sample values. To determine the IC50 a sigmoidal curve was fitted to the plot of % inhibition of control P-IKKα levels versus Log10 compound concentration.
Note: Compounds 237 and 238 were tested at a maximum top concentration of 823 nM.

[3] = tested on: JJN-3 (NIK translocated) multiple myeloma cells; assay: Antiproliferative activity on JJN-3 multiple myeloma cells (CellTiter-Glo, 96 hr), Biological Assay C; type: cell-based, human; conditions: JJN-3 (NIK translocated) cells, averaged values, read-out: JJN-3 Proliferation inhibition (IC50 (nM))
Summary of the method: (§1)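 Growth read-out was CellTiter-Glo luminescence after 96 h compound exposure, given as percent of no-drug control after subtracting a blank of cells read at dosing. Compounds ran as 9-point serial 1:3 dilutions in 0.3% DMSO, duplicate wells, on JJN-3 (15000/well) or KMS12-BM (20000/well) cells in RPMI 1640/10% FCS.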

[4] = tested on: KMS12-BM (NIK WT) multiple myeloma cells; assay: Antiproliferative activity on KMS12-BM multiple myeloma cells (CellTiter-Glo, 96 hr), Biological Assay C; type: cell-based, human; conditions: averaged values, read-out: KMS-12 Proliferation inhibition (IC50 (nM))
Summary of the method: as §1

recombinant human NF-kappaB-inducing kinase (NIK/MAP3K14), sequence (Q99558 whole entry): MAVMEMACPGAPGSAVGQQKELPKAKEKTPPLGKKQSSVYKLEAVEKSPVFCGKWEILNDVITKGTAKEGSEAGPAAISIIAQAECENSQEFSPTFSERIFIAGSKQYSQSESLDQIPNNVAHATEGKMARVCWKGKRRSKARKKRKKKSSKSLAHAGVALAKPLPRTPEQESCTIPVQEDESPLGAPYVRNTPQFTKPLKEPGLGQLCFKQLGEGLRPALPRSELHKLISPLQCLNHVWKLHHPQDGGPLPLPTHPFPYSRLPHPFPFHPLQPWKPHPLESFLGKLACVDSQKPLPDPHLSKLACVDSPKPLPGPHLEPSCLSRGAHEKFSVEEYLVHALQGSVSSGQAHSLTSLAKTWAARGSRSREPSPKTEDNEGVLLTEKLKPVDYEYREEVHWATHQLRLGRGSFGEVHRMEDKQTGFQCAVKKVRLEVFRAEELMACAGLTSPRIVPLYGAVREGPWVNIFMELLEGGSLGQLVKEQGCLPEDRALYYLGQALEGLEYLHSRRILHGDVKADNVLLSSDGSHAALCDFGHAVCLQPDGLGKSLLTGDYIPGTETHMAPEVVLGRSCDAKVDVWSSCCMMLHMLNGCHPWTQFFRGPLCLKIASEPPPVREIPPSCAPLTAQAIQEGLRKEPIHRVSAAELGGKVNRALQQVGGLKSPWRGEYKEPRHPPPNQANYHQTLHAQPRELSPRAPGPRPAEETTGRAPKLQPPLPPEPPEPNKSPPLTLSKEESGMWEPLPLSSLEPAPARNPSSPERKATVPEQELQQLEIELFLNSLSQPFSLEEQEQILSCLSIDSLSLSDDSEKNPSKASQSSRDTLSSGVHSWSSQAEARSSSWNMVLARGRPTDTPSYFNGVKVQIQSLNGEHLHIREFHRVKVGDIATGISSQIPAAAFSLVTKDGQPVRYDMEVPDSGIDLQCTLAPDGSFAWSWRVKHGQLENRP

Compound | IC50 [1] [nM] | IC50 ([2]; Homo sapiens, L-363, 2 h) [nM] | melting point [°C] | IC50 ([3]; Homo sapiens, JJN-3, 96 h) [nM] | IC50 ([4]; Homo sapiens, KMS-12-BM, 96 h) [nM] | IC50 [2] [nM] | IC50 [3] [nM] | IC50 [4] [nM]
Cc1c(Nc2nccc(-c3cc(C#N)c4c(c3)[C@@](C)(CO)CN4)n2)cc(C#N)cc1C(=O)O [Compound 201] | 2.8 | ~1200 | 220 | – | – | – | – | –
CNCc1ccc(C)c(Nc2nccc(-c3cc(C#N)c4c(c3)[C@@](C)(CO)CN4)n2)c1 [Compound 239] | 13.8 | 355 | 116 | – | – | – | – | –
Cc1ccc(C#N)cc1Nc1nccc(-c2cc(C#N)c3c(c2)[C@@](C)(C(C)(C)O)CN3)n1 [Compound 135] | 58.9 | 4370 | 166 | – | – | – | – | –
C[C@]1(CO)CNc2c(C#N)cc(-c3ccnc(Nc4cc(C#N)ccc4OCCCN)n3)cc21 [Compound 180] | 3.7 | 44.7 | 194 | – | – | – | – | –
Cc1ccc(C#N)cc1Nc1nccc(-c2cc(C#N)c3c(c2)[C@@](C)(COC(=O)[C@H](C)N)CN3)n1 [Compound 138] | 11.2 | 2.1 | – | 102 | ~4790 | – | – | –
Cc1ccc(CNC2CC2)cc1Nc1nccc(-c2cc(C#N)c3c(c2)[C@@](C)(CO)CN3)n1 [Compound 218] | 3.6 | ~1230 | 115 | – | – | – | – | –
COCCOc1ccc(P(C)(C)=O)cc1Nc1nccc(-c2cc(C#N)c3c(c2)[C@@](C)(CO)CN3)n1 [Compound 5] | 2510 | > 10000 | 115 | – | – | – | – | –
Cc1ccc(C#N)cc1Nc1nccc(-c2cc(C#N)c3c(c2)[C@@](C)(CO)CN3)n1 [Compound 134] | 0.9 | – | – | – | – | 2.8 | 91 | 5500
Cc1ccc(CN2CC(F)(F)C2)cc1Nc1nccc(-c2cc(C#N)c3c(c2)[C@@](C)(CO)CN3)n1 [Compound 219] | 15.5 | 5500 | 181 | – | – | – | – | –
Cc1ccc(C#N)cc1Nc1nccc(-c2cc(C#N)c3c(c2)[C@@](C)(CNS(C)(=O)=O)CN3)n1 [Compound 212] | 25.1 | ~4470 | 168 | – | – | – | – | –
Cc1ccc(-c2ccnn2C)cc1Nc1nccc(-c2cc(C#N)c3c(c2)[C@@](C)(CO)CN3)n1 [Compound 190] | 34.7 | 2630 | 128 | – | – | – | – | –
C[C@]1(CO)CNc2c(C#N)cc(-c3ccnc(Nc4cc(C#N)ccc4CO)n3)cc21 [Compound 153] | 1.3 | 6.3 | – | 240 | > 10000 | – | – | –
CCC(=O)NCC#Cc1cc(C)c(Nc2nccc(-c3cc(C#N)c4c(c3)[C@@](C)(CO)CN4)n2)cc1C#N [Compound 176] | 3.8 | 5.9 | – | 91 | > 10000 | – | – | –
[2H]C([2H])(O)c1cc(Nc2nccc(-c3cc(C#N)c4c(c3)[C@@](C)(CO)CN4)n2)c(C)cc1F [Compound 148] | 4.7 | 8.9 | – | 523 | > 10000 | – | – | –
CCN1CCN(Cc2cc(OC)c(Nc3nccc(-c4cc(C#N)c5c(c4)C(C)(C)CN5)n3)cc2Cl)CC1 [Compound 87] | 7.1 | 93.3 | – | 35 | 1180 | – | – | –
Cc1ccc(C(C)(C)O)cc1Nc1nccc(-c2cc(C#N)c3c(c2)[C@@](C)(CO)CN3)n1 [Compound 151] | 22.4 | 427 | 122 | – | – | – | – | –
C[C@]1(CO)CNc2c(C#N)cc(-c3ccnc(Nc4ccc(S(C)(=O)=O)cc4CCC4CC4)n3)cc21 [Compound 2] | 4.3 | 4.8 | – | 58 | > 10000 | – | – | –
COc1cc(OCC(=O)N(C)C)c(Cl)cc1Nc1nccc(-c2cc(C#N)c3c(c2)C(C)(C)CN3)n1 [Compound 82] | 7.6 | 5.3 | – | 22 | > 10000 | – | – | –

Compound | IC50 [1] [nM] | IC50 ([2]; Homo sapiens, L-363, 2 h) [nM] | melting point [°C] | IC50 ([3]; Homo sapiens, JJN-3, 96 h) [nM] | IC50 ([4]; Homo sapiens, KMS-12-BM, 96 h) [nM] | IC50 [2] [nM] | IC50 [3] [nM] | IC50 [4] [nM]
C[C@]1(CO)CNc2c(C#N)cc(-c3ccnc(Nc4cc(P(C)(C)=O)ccc4OCC4CC4)n3)cc21 [Compound 6] | 447 | > 10000 | 148 | – | – | – | – | –
COc1cc(C(=O)NC2CCOCC2)ccc1Nc1nccc(-c2cc(C#N)c3c(c2)C(C)(CO)CN3)n1 (stereo not shown) [Compound 21] | 2.5 | 4.5 | – | 51 | 891 | – | – | –
CNC(=O)c1ccc(C)c(Nc2nccc(-c3cc(C#N)c4c(c3)[C@@](C)(CO)CN4)n2)c1 [Compound 4] | 4.2 | 20.9 | – | 759 | > 10000 | – | – | –
CC(C)Oc1ccc(CO)cc1Nc1nccc(-c2cc(C#N)c3c(c2)[C@@](C)(CO)CN3)n1 [Compound 154] | 1.4 | 6.6 | – | 141 | > 10000 | – | – | –
[2H]C([2H])(O)c1ccc(C)c(Nc2nccc(-c3cc(C#N)c4c(c3)[C@@](C)(CO)CN4)n2)c1 [Compound 150] | 0.8 | 2.2 | – | 91 | > 10000 | – | – | –
Cc1ccc(-c2ncc[nH]2)cc1Nc1nccc(-c2cc(C#N)c3c(c2)[C@@](C)(CO)CN3)n1.Cl [Compound 191] | 13.8 | 4070 | 122 | – | – | – | – | –
COc1cc(N2CCC(N(C)C)CC2)c(Cl)cc1Nc1nccc(-c2cc(C#N)c3c(c2)C(C)(CO)CN3)n1 (stereo not shown) [Compound 22] | 2.5 | 11.5 | – | 7 | 631 | – | – | –
CN1CCC(Oc2ccc(C#N)cc2Nc2nccc(-c3cc(C#N)c4c(c3)[C@@](C)(CO)CN4)n2)C(F)C1 (stereo partly shown) [Compound 230] | 6.3 | 7.7 | – | 46 | > 10000 | – | – | –
Cc1ccc(-c2cncn2C)cc1Nc1nccc(-c2cc(C#N)c3c(c2)[C@@](C)(CO)CN3)n1 [Compound 189] | 30.9 | 1620 | 239 | – | – | – | – | –
CNC(=O)c1ccc(OC(C)C)c(Nc2nccc(-c3cc(C#N)c4c(c3)[C@@](C)(CO)CN4)n2)c1 [Compound 162] | 5.5 | 19.5 | – | 288 | > 10000 | – | – | –
Cc1ccc(CO)cc1Nc1nccc(-c2cc(C#N)c3c(c2)C(C)(CO)CN3)n1 (stereo not shown) [Compound 215] | 1.5 | 2.9 | – | 199 | > 10000 | – | – | –
Cc1ccc(C(=O)NCCN2CCCC2)cc1Nc1nccc(-c2cc(C#N)c3c(c2)[C@@](C)(CO)CN3)n1 [Compound 158] | 5.4 | 91.2 | – | 1230 | > 10000 | – | – | –
Cc1cc(C(=O)NC2CCOCC2)ccc1Nc1nccc(-c2cc(C#N)c3c(c2)C(C)(C)CN3)n1 [Compound 78] | 2.7 | 7.9 | – | 87 | 2040 | – | – | –
COc1cc(CO)c(Cl)cc1Nc1nccc(-c2cc(C#N)c3c(c2)C(C)(C)CN3)n1 [Compound 84] | 19.1 | 12.9 | – | 251 | ~7590 | – | – | –
CC(=O)NCCCOc1ccc(C#N)cc1Nc1nccc(-c2cc(C#N)c3c(c2)[C@@](C)(CO)CN3)n1 [Compound 181] | 5.1 | 7.8 | – | 195 | > 10000 | – | – | –
CCCCCc1cc(S(C)(=O)=O)ccc1Nc1nccc(-c2cc(C#N)c3c(c2)[C@@](C)(CO)CN3)n1 [Compound 3] | 10.2 | 15.1 | – | 115 | > 10000 | – | – | –
CN1CC(F)C(Oc2ccc(C#N)cc2Nc2nccc(-c3cc(C#N)c4c(c3)[C@@](C)(CO)CN4)n2)C1 (stereo partly shown) [Compound 232] | 5.5 | 11.5 | – | – | > 10000 | – | 282 | –
